Laboratory results from publication PMC10967856, “Mechanistic Insights Revealed by YbtPQ in the Occluded State” (Biomolecules, 2024).

What was measured:
YbtPQ [1] = target: T1, YbtPQ (Escherichia coli, UniProt Q1RAG2+Q1RAG3); conditions: trapping at 37 °C for 15 min, vanadate 0-20 mM tested (20 mM with 18 mM ATP and 54 mM MgCl2 for the cryo-EM sample); YbtPQ-nanodisc; traps as ADP-Vi
T1 construct: gene ybtP

YbtPQ [2] = target: T1, YbtPQ; conditions: YbtPQ-nanodisc; basal ATPase activity, no Km given

SMILES | % drop in ATPase activity after vanadate trapping (YbtPQ [1]) | ATPase activity, malachite green phosphate release (YbtPQ [2])
[O]=[V]([OH])([OH])[OH] [vanadate] | ~ 90% | 
Nc1ncnc2c1ncn2[C@@H]1O[C@H](COP(=O)(O)OP(=O)(O)OP(=O)(O)O)[C@@H](O)[C@H]1O [ATP] |  | malachite green reacting with the released phosphate group
